Measured values: ChEMBL document CHEMBL1201862, “PubChem BioAssay data set” (2004)
Blank lines part the entries; values can stand above or below the compound they belong to. Activity calls are given as the source filed them.

How the values were obtained:
Cytochrome P450 2C19 = Cytochrome P450 2C19 (Homo sapiens, UniProt P33261); test: Cytochrome panel assay with activity outcomes. Panel member name: p450-cyp2c19 Compounds with AC50 equal or less than 10 uM are considered active; assay type: functional; details: read-out: AC50
Cytochrome P450 2C9 = Cytochrome P450 2C9 (Homo sapiens, UniProt P11712)
Cytochrome P450 3A4 = Cytochrome P450 3A4 (Homo sapiens, UniProt P08684);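 also: CYP3A4 tested as one member of a cytochrome P450 panel screen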
[1] = inhibitors of Trypanosoma cruzi host-cell infection, confirmation, beta-gal luminescence, NIH3T3 host cells (AID 2630); assay type: functional, cell-based; details: Mus musculus
[2] = target: G-protein coupled receptor 55 (Homo sapiens, UniProt Q9Y2T6); test: SAR Analysis of Selective Antagonists of GPR55 using an Image-Based Assay - Set 4. [Related pubchem assays (depositor defined):AID2013, AID2026]; assay type: functional;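 also: antagonism of response to 5 µM lysophosphatidylinositol agonist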
Cannabinoid receptor 1 [3] = target: T1, Cannabinoid receptor 1 (Homo sapiens, UniProt P21554); test: SAR analysis of agonists of the Cannabinoid Receptor 1 using an Image-Based Assay - Set 4. [Related pubchem assays (depositor defined):AID2013, AID2026]; assay type: functional
Cannabinoid receptor 1 [4] = target: T1, Cannabinoid receptor 1; test: SAR analysis of antagonists of the Cannabinoid Receptor 1 using an Image-Based Assay - Set 4. [Related pubchem assays (depositor defined):AID2013, AID2026]; assay type: functional
Cannabinoid receptor 2 [5] = target: T2, Cannabinoid receptor 2 (Homo sapiens, UniProt P34972); test: SAR analysis of antagonists of the Cannabinoid Receptor 2 using an Image-Based Assay - Set 3. [Related pubchem assays (depositor defined):AID2013, AID2026]; assay type: functional
[6] = target: T3, G-protein coupled receptor 35 (Homo sapiens, UniProt Q9HC97); test: SAR analysis of Agonists of the GPR35 Receptor using an Image-Based Assay - Set 4. [Related pubchem assays (depositor defined):AID2013, AID2026]; assay type: functional
[7] = target: COUP transcription factor 2 (Homo sapiens, UniProt P24468); test: Luminescence-based cell-based high throughput dose response assay to identify inhibitors of COUP-TFII (NR2F2).; assay type: functional;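 also: HEK293 cells transiently cotransfected with COUP-TFII expression vector and reporter; luciferase reporter luminescence driven by COUP-TFII from the pX2-168 reporter plasmid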
[8] = target: T3, G-protein coupled receptor 35; test: SAR analysis of Antagonists of the GPR35 Receptor using an Image-Based Assay - Set 6. [Related pubchem assays (depositor defined):AID2013, AID2026]; assay type: functional
[9] = target: T4, High affinity choline transporter 1 (Homo sapiens, UniProt Q9GZV3); test: CHT inhibitors, dose response, cell-based, 5-point CRC, membrane potential dye (AID 504840); assay type: functional
T4 sequence (Q9GZV3 whole entry): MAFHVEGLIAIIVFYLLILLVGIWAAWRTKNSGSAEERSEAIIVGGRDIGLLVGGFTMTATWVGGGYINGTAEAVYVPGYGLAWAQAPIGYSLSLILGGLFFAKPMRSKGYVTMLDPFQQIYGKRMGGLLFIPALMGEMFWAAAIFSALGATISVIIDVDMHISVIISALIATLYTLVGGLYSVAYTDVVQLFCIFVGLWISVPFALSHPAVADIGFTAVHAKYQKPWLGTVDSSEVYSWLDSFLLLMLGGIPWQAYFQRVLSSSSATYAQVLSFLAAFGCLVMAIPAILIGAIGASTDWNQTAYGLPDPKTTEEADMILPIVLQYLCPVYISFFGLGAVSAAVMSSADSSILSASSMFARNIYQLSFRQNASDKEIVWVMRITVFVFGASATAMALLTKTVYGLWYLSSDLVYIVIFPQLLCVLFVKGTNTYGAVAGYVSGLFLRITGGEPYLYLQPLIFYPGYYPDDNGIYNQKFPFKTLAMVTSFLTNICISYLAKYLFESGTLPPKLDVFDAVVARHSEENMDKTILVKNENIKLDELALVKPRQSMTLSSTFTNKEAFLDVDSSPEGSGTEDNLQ

Cannabinoid receptor 2 [10] = target: T2, Cannabinoid receptor 2; test: SAR analysis of agonists of the Cannabinoid Receptor 2 using an Image-Based Assay - Set 3. [Related pubchem assays (depositor defined):AID2013, AID2026]; assay type: functional
Genome polyprotein = Genome polyprotein (dengue virus type 2, UniProt P29990); test: Dengue-2 NS5 methyltransferase inhibitors, primary screen, biochemical, confirmation dose response (AID 588689); assay type: functional
[11] = target: T5, Alkaline phosphatase, tissue-nonspecific isozyme (Homo sapiens, UniProt P05186); test: TNAP enzyme activators, dose response, selectivity assay for mouse IAP activator project, biochemical, TNAP isozyme, mouse IAP uHTS hits (AID 488880); assay type: functional
T5 sequence (P05186 whole entry): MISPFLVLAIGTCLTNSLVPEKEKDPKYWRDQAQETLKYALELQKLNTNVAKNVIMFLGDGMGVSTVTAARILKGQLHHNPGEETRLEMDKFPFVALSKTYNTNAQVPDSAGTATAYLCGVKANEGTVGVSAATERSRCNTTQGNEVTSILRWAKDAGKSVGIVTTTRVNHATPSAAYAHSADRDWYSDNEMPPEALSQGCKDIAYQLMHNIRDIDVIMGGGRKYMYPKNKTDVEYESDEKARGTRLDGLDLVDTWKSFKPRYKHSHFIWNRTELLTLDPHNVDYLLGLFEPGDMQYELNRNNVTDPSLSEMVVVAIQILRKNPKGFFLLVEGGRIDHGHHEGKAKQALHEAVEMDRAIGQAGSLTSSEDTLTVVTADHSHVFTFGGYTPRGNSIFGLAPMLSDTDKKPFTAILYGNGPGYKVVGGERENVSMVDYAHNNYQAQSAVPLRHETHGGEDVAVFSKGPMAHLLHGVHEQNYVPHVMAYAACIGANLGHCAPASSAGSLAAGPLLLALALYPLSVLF

Albumin = Albumin (Bos taurus, UniProt P02769); test: Counterscreen for inhibitors of T-cell receptor (TCR)-CD3 interaction: Fluorescence-based biochemical high throughput dose response assay to identify inhibitors of T-cell receptor (TCR)-CD3 interaction using a TAMRA-labeled BSA probe.; assay type: functional
[12] = target: Intestinal-type alkaline phosphatase (Mus musculus, UniProt P24822); test: mouse intestinal alkaline phosphatase activators, dose response, biochemical, luminescence, uHTS hits (AID 488783); assay type: functional
[13] = target: Induced myeloid leukemia cell differentiation protein Mcl-1 (Homo sapiens, UniProt Q07820); test: MCL1-BIM BH3 interaction inhibitors, dose response, biochemical, fluorescence polarization, BIM-BH3 peptide, 1536-well (AID 2217)
Bcl-2-like protein 1 = Bcl-2-like protein 1 (Homo sapiens, UniProt Q07817); test: BCL-XL inhibitors, dose response, selectivity assay for MCL1 inhibitor project, biochemical, fluorescence polarization, 1536-well (AID 2218)
[14] = target: Intestinal-type alkaline phosphatase (Homo sapiens, UniProt P09923); test: activation of human intestinal alkaline phosphatase – biochemical, dose response (AID 488873); assay type: functional
Mu-type opioid receptor = Mu-type opioid receptor (Homo sapiens, UniProt P35372); test: SAR Analysis of Agonists of the MOR Receptor using an Image-Based Assay - Set 3. [Related pubchem assays (depositor defined):AID1777, AID1785, AID1786, AID1966, AID2133, AID2136, AID2284, AID2285, AID2352]; assay type: functional
[15] = target: Delta-type opioid receptor (Homo sapiens, UniProt P41143); test: SAR Analysis of Agonists of the DOR Receptor using an Image-Based Assay - Set 3. [Related pubchem assays (depositor defined):AID1777, AID1786]; assay type: functional
[16] = target: T6, Kappa-type opioid receptor (Homo sapiens, UniProt P41145); test: KOR agonist analogs, arrestin-GFP redistribution, SAR follow-up, imaging, image-based, set 3 (AID 488833); assay type: functional
[17] = target: T6, Kappa-type opioid receptor; test: SAR analysis of small molecule agonists of the kappa opioid receptor via a luminescent beta-arrestin assay - Set 3. [Related pubchem assays (depositor defined):AID1777, AID1785, AID1786, AID1966, AID2133, AID2136, AID2284, AID2500]; assay type: functional
Cytochrome P450 1A2 = target: T7, Cytochrome P450 1A2 (Homo sapiens, UniProt P05177);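 also: PubChem cytochrome P450 panel assay, CYP1A2 panel member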
T7 sequence (P05177 whole entry): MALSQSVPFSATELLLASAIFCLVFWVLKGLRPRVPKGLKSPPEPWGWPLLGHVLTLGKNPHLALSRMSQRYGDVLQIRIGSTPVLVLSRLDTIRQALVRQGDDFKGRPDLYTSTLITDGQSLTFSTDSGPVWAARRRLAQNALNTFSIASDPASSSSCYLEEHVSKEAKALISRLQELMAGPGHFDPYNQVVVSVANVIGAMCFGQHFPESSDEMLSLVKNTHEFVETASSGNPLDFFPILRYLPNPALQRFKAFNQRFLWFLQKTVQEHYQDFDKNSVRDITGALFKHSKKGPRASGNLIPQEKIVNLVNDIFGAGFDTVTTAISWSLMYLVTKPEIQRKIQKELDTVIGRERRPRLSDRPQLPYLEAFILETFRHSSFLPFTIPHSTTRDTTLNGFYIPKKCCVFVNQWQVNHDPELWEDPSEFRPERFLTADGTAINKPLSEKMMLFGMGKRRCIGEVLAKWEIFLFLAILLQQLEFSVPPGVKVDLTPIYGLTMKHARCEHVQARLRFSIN

Phosphomannomutase 2 = Phosphomannomutase 2 (Homo sapiens, UniProt O15305); test: Counter screen SAR assay for PMM2 inhibitors via a fluorescence intensity assay. [Related pubchem assays (depositor defined):AID1545, AID1574]
[18] = target: T8, Mannose-6-phosphate isomerase (Homo sapiens, UniProt P34949); test: PMI enzyme inhibitors, confirmation, biochemical, fluorescence intensity (AID 1535)
T8 sequence (P34949 whole entry): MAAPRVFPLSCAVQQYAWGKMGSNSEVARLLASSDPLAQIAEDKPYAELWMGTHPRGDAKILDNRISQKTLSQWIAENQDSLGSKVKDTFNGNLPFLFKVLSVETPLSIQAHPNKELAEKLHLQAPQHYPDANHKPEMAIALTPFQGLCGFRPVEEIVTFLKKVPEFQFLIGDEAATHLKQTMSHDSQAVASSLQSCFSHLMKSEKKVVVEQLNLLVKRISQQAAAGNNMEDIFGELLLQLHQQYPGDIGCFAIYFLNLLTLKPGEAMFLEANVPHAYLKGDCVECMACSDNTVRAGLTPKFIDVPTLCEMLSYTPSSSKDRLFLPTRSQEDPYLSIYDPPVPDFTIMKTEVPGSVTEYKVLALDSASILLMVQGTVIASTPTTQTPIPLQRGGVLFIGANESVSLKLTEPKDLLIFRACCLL

T2 sequence (P34972 whole entry): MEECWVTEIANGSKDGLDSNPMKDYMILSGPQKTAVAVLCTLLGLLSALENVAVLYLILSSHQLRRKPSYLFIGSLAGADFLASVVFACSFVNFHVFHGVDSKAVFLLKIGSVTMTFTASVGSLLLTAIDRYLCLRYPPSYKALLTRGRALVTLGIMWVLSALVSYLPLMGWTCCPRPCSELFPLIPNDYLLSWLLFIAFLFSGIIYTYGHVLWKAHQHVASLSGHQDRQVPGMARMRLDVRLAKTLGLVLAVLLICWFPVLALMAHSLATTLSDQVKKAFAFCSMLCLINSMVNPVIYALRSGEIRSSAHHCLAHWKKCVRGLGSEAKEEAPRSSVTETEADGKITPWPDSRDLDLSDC
T1 sequence (P21554 whole entry): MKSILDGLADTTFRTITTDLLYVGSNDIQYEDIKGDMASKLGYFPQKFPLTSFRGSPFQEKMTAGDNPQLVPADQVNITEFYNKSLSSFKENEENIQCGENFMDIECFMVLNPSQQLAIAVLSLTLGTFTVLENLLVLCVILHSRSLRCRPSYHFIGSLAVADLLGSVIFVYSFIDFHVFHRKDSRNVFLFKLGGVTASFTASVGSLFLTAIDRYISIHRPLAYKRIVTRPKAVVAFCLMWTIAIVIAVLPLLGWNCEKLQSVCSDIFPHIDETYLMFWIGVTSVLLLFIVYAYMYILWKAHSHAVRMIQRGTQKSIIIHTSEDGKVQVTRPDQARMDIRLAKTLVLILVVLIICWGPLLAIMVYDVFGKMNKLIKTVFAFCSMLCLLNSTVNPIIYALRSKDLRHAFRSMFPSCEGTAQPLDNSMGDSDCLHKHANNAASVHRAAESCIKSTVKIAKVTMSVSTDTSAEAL
T6 sequence (P41145 whole entry): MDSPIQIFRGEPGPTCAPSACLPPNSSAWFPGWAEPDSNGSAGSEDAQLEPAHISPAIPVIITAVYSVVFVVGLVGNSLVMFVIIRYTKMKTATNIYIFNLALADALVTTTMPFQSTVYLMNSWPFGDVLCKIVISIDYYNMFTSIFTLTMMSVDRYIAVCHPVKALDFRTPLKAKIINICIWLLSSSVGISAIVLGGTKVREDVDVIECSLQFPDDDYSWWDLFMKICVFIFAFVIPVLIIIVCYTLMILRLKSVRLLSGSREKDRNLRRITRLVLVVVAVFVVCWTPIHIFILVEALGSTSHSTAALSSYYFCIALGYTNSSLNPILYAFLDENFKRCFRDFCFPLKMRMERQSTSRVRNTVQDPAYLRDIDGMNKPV
Cytochrome P450 2C19, sequence (P33261 whole entry): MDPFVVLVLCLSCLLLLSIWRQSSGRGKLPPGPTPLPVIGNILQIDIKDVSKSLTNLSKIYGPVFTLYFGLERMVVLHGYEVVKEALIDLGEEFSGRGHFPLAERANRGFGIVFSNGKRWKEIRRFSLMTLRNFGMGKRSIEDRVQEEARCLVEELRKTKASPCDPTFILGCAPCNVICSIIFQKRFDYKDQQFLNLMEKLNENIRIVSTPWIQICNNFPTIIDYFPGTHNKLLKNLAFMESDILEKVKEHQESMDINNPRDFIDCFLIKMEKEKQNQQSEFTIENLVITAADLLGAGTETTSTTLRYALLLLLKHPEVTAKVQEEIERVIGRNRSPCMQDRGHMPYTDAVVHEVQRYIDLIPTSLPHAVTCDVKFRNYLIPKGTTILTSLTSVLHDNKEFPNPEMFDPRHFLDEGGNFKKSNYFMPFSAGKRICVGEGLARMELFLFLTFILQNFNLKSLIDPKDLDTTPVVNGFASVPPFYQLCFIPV
T3 sequence (Q9HC97 whole entry): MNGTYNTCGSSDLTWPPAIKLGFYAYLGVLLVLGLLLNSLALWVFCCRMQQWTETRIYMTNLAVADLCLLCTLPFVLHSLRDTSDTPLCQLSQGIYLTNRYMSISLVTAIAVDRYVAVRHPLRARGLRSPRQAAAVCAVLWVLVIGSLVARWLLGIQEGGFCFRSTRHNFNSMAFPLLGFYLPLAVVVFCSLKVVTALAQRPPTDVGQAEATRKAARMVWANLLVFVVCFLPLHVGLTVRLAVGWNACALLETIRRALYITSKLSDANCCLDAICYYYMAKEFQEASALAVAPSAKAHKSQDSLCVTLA
Mu-type opioid receptor, sequence (P35372 whole entry): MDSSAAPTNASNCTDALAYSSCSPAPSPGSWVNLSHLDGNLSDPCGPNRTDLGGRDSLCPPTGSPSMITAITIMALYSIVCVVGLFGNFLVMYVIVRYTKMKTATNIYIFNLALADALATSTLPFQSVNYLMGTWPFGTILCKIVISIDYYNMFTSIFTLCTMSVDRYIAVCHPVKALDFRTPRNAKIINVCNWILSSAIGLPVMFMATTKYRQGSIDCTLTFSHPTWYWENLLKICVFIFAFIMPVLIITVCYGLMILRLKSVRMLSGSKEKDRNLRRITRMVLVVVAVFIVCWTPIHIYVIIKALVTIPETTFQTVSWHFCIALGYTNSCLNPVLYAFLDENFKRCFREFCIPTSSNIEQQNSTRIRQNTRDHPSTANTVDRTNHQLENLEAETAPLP
Phosphomannomutase 2, sequence (O15305 whole entry): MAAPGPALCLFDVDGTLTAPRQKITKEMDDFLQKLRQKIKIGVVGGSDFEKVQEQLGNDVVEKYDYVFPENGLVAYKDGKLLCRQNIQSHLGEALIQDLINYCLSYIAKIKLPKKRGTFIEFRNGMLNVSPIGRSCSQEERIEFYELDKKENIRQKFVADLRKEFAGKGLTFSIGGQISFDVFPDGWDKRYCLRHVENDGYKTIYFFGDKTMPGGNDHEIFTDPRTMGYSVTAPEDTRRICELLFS
Delta-type opioid receptor, sequence (P41143 whole entry): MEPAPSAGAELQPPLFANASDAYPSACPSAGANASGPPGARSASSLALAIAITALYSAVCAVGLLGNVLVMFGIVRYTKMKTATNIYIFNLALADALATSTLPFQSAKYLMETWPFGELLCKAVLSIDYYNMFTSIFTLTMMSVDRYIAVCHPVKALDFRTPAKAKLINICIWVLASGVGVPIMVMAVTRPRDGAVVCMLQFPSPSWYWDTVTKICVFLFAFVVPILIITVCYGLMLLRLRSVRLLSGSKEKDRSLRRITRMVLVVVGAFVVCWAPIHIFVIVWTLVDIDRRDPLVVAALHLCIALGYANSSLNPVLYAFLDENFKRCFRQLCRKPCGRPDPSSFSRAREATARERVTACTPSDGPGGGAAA
COUP transcription factor 2, sequence (P24468 whole entry): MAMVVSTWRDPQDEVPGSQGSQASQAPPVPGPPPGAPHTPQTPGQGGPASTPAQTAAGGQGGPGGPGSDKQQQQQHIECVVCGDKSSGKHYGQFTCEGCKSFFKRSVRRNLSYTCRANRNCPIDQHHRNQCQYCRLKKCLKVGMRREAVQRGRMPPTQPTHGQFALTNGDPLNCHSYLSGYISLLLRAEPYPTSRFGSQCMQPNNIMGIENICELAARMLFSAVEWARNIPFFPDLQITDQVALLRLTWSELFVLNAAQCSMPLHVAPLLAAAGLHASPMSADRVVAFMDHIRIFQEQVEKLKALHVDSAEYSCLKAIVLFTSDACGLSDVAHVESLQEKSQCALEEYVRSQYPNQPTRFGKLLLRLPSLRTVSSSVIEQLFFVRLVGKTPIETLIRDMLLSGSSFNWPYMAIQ
Cytochrome P450 2C9, sequence (P11712 whole entry): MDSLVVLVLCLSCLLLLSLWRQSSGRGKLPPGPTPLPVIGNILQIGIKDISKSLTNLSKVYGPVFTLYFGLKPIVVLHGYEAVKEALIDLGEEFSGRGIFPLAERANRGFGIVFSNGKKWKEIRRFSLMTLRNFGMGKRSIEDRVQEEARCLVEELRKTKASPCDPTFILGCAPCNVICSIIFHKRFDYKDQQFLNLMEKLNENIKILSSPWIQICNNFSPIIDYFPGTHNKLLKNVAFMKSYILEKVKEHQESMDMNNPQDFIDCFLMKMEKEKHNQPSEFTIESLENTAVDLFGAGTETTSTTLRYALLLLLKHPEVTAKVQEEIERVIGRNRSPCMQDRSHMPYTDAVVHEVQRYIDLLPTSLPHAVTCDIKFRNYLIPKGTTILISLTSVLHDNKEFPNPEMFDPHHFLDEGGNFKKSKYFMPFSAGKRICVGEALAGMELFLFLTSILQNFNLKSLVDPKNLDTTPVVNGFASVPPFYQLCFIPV
Albumin, sequence (P02769 whole entry): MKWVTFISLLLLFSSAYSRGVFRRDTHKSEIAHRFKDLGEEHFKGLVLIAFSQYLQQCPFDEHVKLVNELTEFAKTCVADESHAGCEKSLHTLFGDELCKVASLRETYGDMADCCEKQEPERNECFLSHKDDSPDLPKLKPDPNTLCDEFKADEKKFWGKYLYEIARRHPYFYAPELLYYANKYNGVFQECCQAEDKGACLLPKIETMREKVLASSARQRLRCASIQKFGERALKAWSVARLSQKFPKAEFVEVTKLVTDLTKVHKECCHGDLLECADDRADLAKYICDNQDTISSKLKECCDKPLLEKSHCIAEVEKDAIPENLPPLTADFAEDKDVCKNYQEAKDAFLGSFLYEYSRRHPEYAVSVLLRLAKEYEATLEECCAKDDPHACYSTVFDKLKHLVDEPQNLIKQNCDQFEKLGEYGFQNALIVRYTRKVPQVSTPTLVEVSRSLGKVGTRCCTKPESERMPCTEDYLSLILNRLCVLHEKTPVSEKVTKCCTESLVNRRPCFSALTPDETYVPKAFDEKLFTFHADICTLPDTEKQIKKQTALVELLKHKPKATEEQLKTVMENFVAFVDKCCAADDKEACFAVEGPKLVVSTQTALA
Bcl-2-like protein 1, sequence (Q07817 whole entry): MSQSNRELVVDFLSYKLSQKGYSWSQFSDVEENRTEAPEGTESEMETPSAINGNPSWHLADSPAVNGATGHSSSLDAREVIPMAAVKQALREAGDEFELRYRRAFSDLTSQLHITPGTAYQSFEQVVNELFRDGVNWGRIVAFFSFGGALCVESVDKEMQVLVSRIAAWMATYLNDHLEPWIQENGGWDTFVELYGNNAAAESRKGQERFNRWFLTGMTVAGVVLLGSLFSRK

Structure (SMILES): O=C(CN1CCOCC1)N/N=C/c1ccc([N+](=O)[O-])o1
- EC50 [1]: 0.127 µM (active)

Structure (SMILES): Oc1ccc(-c2n[nH]c(C(F)(F)F)c2-c2ccccc2)c(O)c1
- IC50 [2]: 2.95 µM (active)
- EC50 (Cannabinoid receptor 1 [3]): > 32 µM (inactive)
- IC50 (Cannabinoid receptor 1 [4]): 3.49 µM (active)
- IC50 (Cannabinoid receptor 2 [5]): > 32 µM (inactive)
- EC50 [6]: > 32 µM (inactive)
- IC50 [7]: 10.9 µM (inactive)
- IC50 [8]: > 32 µM (inactive)
- IC50 [9]: 11 µM (active)
- EC50 (Cannabinoid receptor 2 [10]): 27.4 µM (inactive)

Structure (SMILES): O=c1cc(-c2ccc(O)cc2)oc2c(O)c(O)c(O)c(O)c12
- IC50 (Genome polyprotein): > 100 µM (active)
- EC50 [11]: 43.4 µM (active)
- IC50 (Albumin): > 94.2 µM (inactive)
- EC50 [12]: 71.9 µM (active)
- IC50 [13]: 18.8 µM (not active)
- IC50 (Bcl-2-like protein 1): > 109 µM (not active)
- EC50 [14]: 81 µM (active)

Structure (SMILES): Fc1ccc(CSc2nnc(-c3ccccn3)n2Cc2ccco2)c(F)c1F
- EC50 (Mu-type opioid receptor): > 32 µM (inactive)
- EC50 [15]: > 64 µM (inactive)
- EC50 [16]: 5.29 µM (active)
- EC50 [17]: 7.01 µM (active)

Second part, the compound after the results:

- AC50 (Cytochrome P450 2C19): 4.47 µM (inconclusive)
- AC50 (Cytochrome P450 2C9): 7.08 µM (inconclusive)
- AC50 (Cytochrome P450 3A4): inconclusive
Structure (SMILES): Cc1ccc(C)c(N2CCN(C(=O)C3CCN(S(=O)(=O)c4cccc5nsnc45)CC3)CC2)c1

- AC50 (Cytochrome P450 2C19): 20 µM (inconclusive)
- AC50 (Cytochrome P450 1A2): inconclusive
Structure (SMILES): CC(C)[C@@H]1C(=O)N(S(C)(=O)=O)[C@H]2CCN(C(=O)/C=C\CN3CCCCC3)[C@@H]12

- IC50 (Phosphomannomutase 2): > 100 µM (inactive)
- IC50 [18]: 11.9 µM (active)
Structure (SMILES): COCC/N=c1\ssnc1Cl
